From PMC10648349, “Aromatic Diboronic Acids as Effective KPC/AmpC Inhibitors” (Molecules, 2023)
Converted amounts (≈) assume the structure as drawn.

Tests used:
C. krusei ATCC 6258 = test: antifungal activity (disc-diffusion, MIC, MFC); format: cell-based, Candida krusei; conditions: Pichia kudriavzevii, ATCC6258; for MIC: fluconazole by Etest
Procedure, shortened: (§1)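 EUCAST/CLSI methods: disc diffusion at 0.4 mg compound/disc, broth MIC, then MBC (bacteria) or MFC (yeast). DMSO vehicle.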

[1] = MTT-based viability assay; format: cell-based; conditions: human, MRC-5 human fibroblasts, 72 h; for viability at 72 h, 12.5 mg/L / viability at 72 h, 25 mg/L / viability at 72 h, 50 mg/L: read-out: Viability of MRC-5 cells (% of viable cells ± SD)
Procedure, shortened: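 Percent viable cells relative to control, measured in triplicate by MTT read-out at 570 nm. Cells: MRC-5 human fibroblasts cultured at 37 °C, 5% CO2 in MEME plus 10% FBS.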

[2] = system: K. pneumoniae ATCC 700603 ESBL-positive; test: combination disc test CDT-ESBL; format: cell-based; conditions: Klebsiella pneumoniae, ATCC700603; agent 0.3 mg per disc; read-out: Diameter of inhibition zone, CAZ-30 disc with agent
[3] = system: C. parapsilosis ATCC 22019; test: antifungal activity (disc-diffusion, MIC, MFC); format: cell-based, Candida parapsilosis; conditions: Lodderomyces parapsilosis, ATCC22019; for MIC: fluconazole by Etest
Procedure, shortened: as §1

[4] = system: E. coli 77 CMY-2-positive; test: combination disc test CDT-AmpC; format: cell-based; conditions: Escherichia coli; agent 0.3 mg per disc; read-out: Diameter of inhibition zone, CAZ-30 disc with agent
C. tropicalis ATCC 750 = test: antifungal activity (disc-diffusion, MIC, MFC); format: cell-based; conditions: Candida tropicalis, ATCC750; for MIC: fluconazole by Etest
Procedure, shortened: as §1

S. cerevisiae ATCC 9763 = test: antifungal activity (disc-diffusion, MIC, MFC); format: cell-based; conditions: Saccharomyces cerevisiae, ATCC9763; for MIC: fluconazole by Etest
Procedure, shortened: as §1

C. tropicalis IBA 171 = test: antifungal activity (disc-diffusion, MIC, MFC); format: cell-based; conditions: Candida tropicalis, IBA171; for MIC: fluconazole by Etest
Procedure, shortened: as §1

C. albicans ATCC 90028 = test: antifungal activity (disc-diffusion, MIC, MFC); format: cell-based; conditions: Candida albicans, ATCC90028; for MIC: fluconazole by Etest
Procedure, shortened: as §1

[5] = system: K. pneumoniae ATCC BAA 1705 KPC-2-positive; test: combination disc test CDT-KPC; format: cell-based; conditions: Klebsiella pneumoniae, BAA1705; agent 0.3 mg per disc; read-out: Diameter of inhibition zone, MEM-10 disc with agent
[6] = system: P. aeruginosa MUW 700 AmpC(+); test: MIC of tested agent alone, microdilution; format: cell-based; conditions: Pseudomonas aeruginosa; read-out: MIC of agent alone
Procedure, shortened: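 Two-fold checkerboard dilutions pair β-lactams (1–64 mg/L) with tested agents (4–16 mg/L); agent MICs alone come from parallel microdilution.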

B. subtilis ATCC 6633 = test: direct antimicrobial activity (disc-diffusion); format: cell-based; conditions: Bacillus subtilis, ATCC6633; 0.4 mg per disc, 9 mm disc (linezolid 0.03 mg, 6 mm disc); - no zone; read-out: Diameter of inhibition zone
Procedure, shortened: as §1

E. faecalis ATCC 29212 = test: direct antimicrobial activity (disc-diffusion, MIC, MBC); format: cell-based; conditions: Enterococcus faecalis, ATCC29212; for zone of inhibition at 0.4 mg/disc: 0.4 mg per disc, 9 mm disc (linezolid 0.03 mg, 6 mm disc), - no zone, read-out: Diameter of inhibition zone
Procedure, shortened: as §1

[7] = system: S. aureus ATCC 43300 MRSA; test: as above; format: cell-based; conditions: Staphylococcus aureus; for zone of inhibition at 0.4 mg/disc: 0.4 mg per disc, 9 mm disc (linezolid 0.03 mg, 6 mm disc), - no zone, read-out: Diameter of inhibition zone
Procedure, shortened: as §1

[8] = system: S. epidermidis ATCC 12228; test: as above; format: cell-based; conditions: Staphylococcus epidermidis, ATCC12228; for zone of inhibition at 0.4 mg/disc: 0.4 mg per disc, 9 mm disc (linezolid 0.03 mg, 6 mm disc), - no zone, read-out: Diameter of inhibition zone
Procedure, shortened: as §1

E. faecium ATCC 6057 = test: as above; format: cell-based; conditions: Enterococcus faecium, ATCC6057; for zone of inhibition at 0.4 mg/disc: 0.4 mg per disc, 9 mm disc (linezolid 0.03 mg, 6 mm disc), - no zone, read-out: Diameter of inhibition zone
Procedure, shortened: as §1

S. aureus ATCC 6538P = test: as above; format: cell-based; conditions: Staphylococcus aureus, ATCC6538P; for zone of inhibition at 0.4 mg/disc: 0.4 mg per disc, 9 mm disc (linezolid 0.03 mg, 6 mm disc), - no zone, read-out: Diameter of inhibition zone
Procedure, shortened: as §1

[9] = 0.4 mg per disc, 9 mm disc (fluconazole 0.025 mg, 6 mm disc), - no zone, read-out: Diameter of inhibition zone

| Structure (SMILES) | MIC (C. krusei ATCC 6258) [µg/mL] | viability at 72 h, 12.5 mg/L [1] [%] | viability at 72 h, 25 mg/L [1] [%] | viability at 72 h, 50 mg/L [1] [%] | zone of inhibition at 300 µg/disc [2] [mm] | MIC [3] [µg/mL] | zone of inhibition at 300 µg/disc [4] [mm] | MIC (C. tropicalis ATCC 750) [µg/mL] | MIC (S. cerevisiae ATCC 9763) [µg/mL] | MIC (C. tropicalis IBA 171) [µg/mL] | MIC (C. albicans ATCC 90028) [µg/mL] | zone of inhibition at 300 µg/disc [5] [mm] | MIC [6] [µg/mL] | zone of inhibition at 0.4 mg/disc (B. subtilis ATCC 6633) [mm] | MIC (E. faecalis ATCC 29212) [µg/mL] | zone of inhibition at 0.4 mg/disc (E. faecalis ATCC 29212) [mm] | MIC [7] [µg/mL] | zone of inhibition at 0.4 mg/disc [7] [mm] | MIC [8] [µg/mL] | zone of inhibition at 0.4 mg/disc [8] [mm] | other results |
| --- | --- | --- | --- | --- | --- | --- | --- | --- | --- | --- | --- | --- | --- | --- | --- | --- | --- | --- | --- | --- | --- |
| OB(O)c1cc(C(F)(F)F)cc(B(O)O)c1F [2e] | > 400 | 96.6 ± 6.4 | 84.4 ± 4.8 | 63.1 ± 1.4 | 16 | 400 (≈ 1590 µM) | 19 | > 400 | > 400 | 400 (≈ 1590 µM) | 400 (≈ 1590 µM) | 6 | > 400 | 20 | 50 (≈ 199 µM) | 21 | 12.5 (≈ 49.7 µM) | 25 | 0.78 (≈ 3.1 µM) | 35 | MIC (E. faecium ATCC 6057): 100 µg/mL (≈ 397 µM); zone of inhibition at 0.4 mg/disc (E. faecium ATCC 6057): 18 mm; MIC (S. aureus ATCC 6538P): 6.25 µg/mL (≈ 24.8 µM); zone of inhibition at 0.4 mg/disc (S. aureus ATCC 6538P): 29 mm |
| OB(O)c1ccccc1S [7c, 2-mercaptophenylboronic acid] | 50 (≈ 325 µM) | 56.4 ± 3 | 6.6 ± 5.1 | 0 | 15 | 50 (≈ 325 µM) | 16 | 50 (≈ 325 µM) | 12.5 (≈ 81.2 µM) | 12.5 (≈ 81.2 µM) | 50 (≈ 325 µM) | 13 | > 200 | 26 | 25 (≈ 162 µM) | 23 | 25 (≈ 162 µM) | 22 | 12.5 (≈ 81.2 µM) | 30 | zone of inhibition at 0.4 mg/disc (C. krusei ATCC 6258; [9]): 16 mm; viability at 72 h ([1]; 12.5, 25 and 50 mg/L): 0 to 56.4%; zone of inhibition at 0.4 mg/disc [3, 9]: 29 mm; MFC (C. tropicalis ATCC 750): 200 µg/mL (≈ 1300 µM); zone of inhibition at 0.4 mg/disc (C. tropicalis ATCC 750; [9]): 20 mm; MFC (S. cerevisiae ATCC 9763): 25 µg/mL (≈ 162 µM); zone of inhibition at 0.4 mg/disc (S. cerevisiae ATCC 9763; [9]): 34 mm; MFC (C. tropicalis IBA 171): 100 µg/mL (≈ 649 µM); MFC (C. albicans ATCC 90028): 200 µg/mL (≈ 1300 µM); zone of inhibition at 0.4 mg/disc (C. albicans ATCC 90028; [9]): 33 mm; MIC (E. faecium ATCC 6057): 12.5 µg/mL (≈ 81.2 µM); zone of inhibition at 0.4 mg/disc (E. faecium ATCC 6057): 25 mm; MIC (S. aureus ATCC 6538P): 12.5 µg/mL (≈ 81.2 µM); zone of inhibition at 0.4 mg/disc (S. aureus ATCC 6538P): 23 mm |
